Test results from patent publication US10654884B2 (Vitae Pharmaceuticals, Inc., priority 2014, dated 2020).

Columns and labels:
[1] = target: T1, human CD73 (Homo sapiens, UniProt P21589); assay: Inhibition of 5′-Nucleotidase Activity of CD73 (Assay 1); assay type: biochemical; settings: human CD73 4 ng/ml, 50 μM CMP, 20 min at RT, malachite green readout; read-out: Assay 1: IC50, inhibition of 5′-nucleotidase activity of CD73
T1 construct: purchased R&D Systems 5795-EN-010
T1 sequence (P21589 27-549): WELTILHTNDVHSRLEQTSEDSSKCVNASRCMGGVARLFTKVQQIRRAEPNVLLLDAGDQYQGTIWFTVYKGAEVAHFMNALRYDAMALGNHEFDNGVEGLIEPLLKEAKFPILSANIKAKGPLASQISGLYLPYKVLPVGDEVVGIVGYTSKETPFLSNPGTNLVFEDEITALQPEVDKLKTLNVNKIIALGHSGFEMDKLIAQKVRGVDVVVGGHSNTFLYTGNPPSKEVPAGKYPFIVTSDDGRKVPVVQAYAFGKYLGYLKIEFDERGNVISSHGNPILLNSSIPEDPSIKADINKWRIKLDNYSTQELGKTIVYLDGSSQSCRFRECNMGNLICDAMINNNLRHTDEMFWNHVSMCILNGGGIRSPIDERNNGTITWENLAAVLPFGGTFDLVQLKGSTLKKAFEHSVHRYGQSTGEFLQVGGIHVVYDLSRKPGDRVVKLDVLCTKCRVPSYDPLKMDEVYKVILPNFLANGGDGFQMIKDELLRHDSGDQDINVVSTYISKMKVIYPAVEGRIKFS
In short: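 Human CD73 (4 ng/ml final) was incubated with 50 μM CMP in 25 mM Tris-HCl pH 7.4, 0.005% Brij-35 for 20 min at RT. Reactions were stopped with malachite green reagent and absorbance was read at 620 nm. IC50 came from a 4-parameter logistic fit.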

[2] = target: T2, CD73 on U138 neuroglioma cells (Homo sapiens, UniProt P21589); assay: Inhibition of Ecto-5′-Nucleotidase Activity in U138 Neuroglioma Cells (Assay 2); assay type: cell-based; settings: 50 μM CMP, 2 hr at 37° C., malachite green readout, read-out: Assay 2: IC50, inhibition of ecto-5′-nucleotidase activity in U138 neuroglioma cells
T2 construct: U138 neuroglioma cells, which express CD73 on their surface; endogenous in cells; host or cells: U138 neuroglioma cells (ATCC)
T2 sequence (P21589 27-549): T1 sequence (P21589 27-549)
Procedure: Inhibition of Ecto-5′-Nucleotidase Activity in U138 Neuroglioma Cells (Assay 2)
U138 cells were obtained from the American Type Culture Collection (ATCC) (Manassas, Va.), and cultured in complete growth media (DMEM, 10% FBS, 1 mM L-glutamine, 100 U penicillin-streptomycin) at 37° C., 5% CO2. The day before the experiment, cells were seeded at 2,500 cells/well in 100 μL of complete media into 96-well plates. Cells were washed twice with 200 μL of assay buffer (20 mM HEPES, pH 7.4, 137 mM NaCl, 5.4 mM KCl, 1.3 mM CaCl2, 4.2 mM NaHCO3, 1 mg/mL glucose) to remove residual inorganic phosphate. After washing, assays contained serial dilutions of test compounds and 50 μM of cytidine-5′-monophosphate (CMP) in a total volume of 200 μL of assay buffer, with a final DMSO concentration ≤0.1%. After 2 hr at 37° C., 5% CO2, 100 μL of supernatant was removed from the cells and the concentration of inorganic phosphate was determined using malachite green reagent. IC50 values for test compounds were determined from nonlinear regression fits of the data using XLfit (IDBS).

Structure (SMILES)	IC50 [1]	IC50 [2]
CCOC(=O)[C@H](OC[C@H]1O[C@@H](n2cnc3c(C)nc(Cl)nc32)[C@H](O)[C@@H]1O)P(=O)(O)O (single isomer, unassigned) [Example 28]	< 100 nM	< 100 nM
CCOC(=O)[C@](C)(OC[C@H]1O[C@@H](n2cnc3c(N)nc(Cl)nc32)[C@H](O)[C@@H]1O)P(=O)(O)O (single isomer, unassigned) [Example 9]	< 100 nM	100 to 1000 nM
CCOC(=O)[C@H](OC[C@H]1O[C@@H](n2cnc3c(NC4CC4)nc(Cl)nc32)[C@H](O)[C@@H]1O)P(=O)(O)O (single isomer, unassigned) [Example 22]	< 100 nM	< 100 nM
CCN(CC)C(=O)[C@@H](OC[C@H]1O[C@@H](n2cnc3c(N)nc(Cl)nc32)[C@H](O)[C@@H]1O)P(=O)(O)O (single isomer, unassigned) [Example 82]	< 100 nM	100 to 1000 nM
CCCS(=O)(=O)[C@H](OC[C@H]1O[C@@H](n2cnc3c(N)nc(Cl)nc32)[C@H](O)[C@@H]1O)P(=O)(O)O (single isomer, unassigned) [Example 12]	< 100 nM	100 to 1000 nM
CCOC(=O)[C@@H](OC[C@H]1O[C@@H](n2cnc3c(NCc4ccccc4)nc(Cl)nc32)[C@H](O)[C@@H]1O)P(=O)(O)O (single isomer, unassigned) [Example 24a]	100 to 1000 nM	100 to 1000 nM
CCOC(=O)[C@H](OC[C@H]1O[C@@H](n2cnc3c(N)nc(C(F)(F)F)nc32)[C@H](O)[C@@H]1O)P(=O)(O)O (single isomer, unassigned) [Example 42]	< 100 nM	100 to 1000 nM
CCOC(=O)C(OC[C@H]1C[C@@H](n2nnc3c(N)nc(Br)nc32)[C@H](O)[C@@H]1O)P(=O)(O)O (single isomer, unassigned) [Example 77a]	< 100 nM	100 to 1000 nM
Cc1nc(C)c2ncn([C@@H]3O[C@H](COC(C(=O)O)P(=O)(O)O)[C@@H](O)[C@H]3O)c2n1 (stereo partly drawn) [Example 38, 2-(((2R,3S,4R,5R)-5-(2,6-dimethyl-9H-purin-9-yl)-3,4-dihydroxytetrahydrofuran-2-yl)methoxy)-2-phosphonoacetic acid]	100 to 1000 nM	> 1000 nM
CCOC(=O)[C@H](OC[C@H]1C[C@@H](n2cnc3cccc(Cl)c3c2=O)[C@H](O)[C@@H]1O)P(=O)(O)O (single isomer, unassigned) [Example 70]	100 to 1000 nM	> 1000 nM
CCOc1nc(Cl)nc2c1ncn2[C@@H]1O[C@H](COC(C(=O)O)P(=O)(O)O)[C@@H](O)[C@H]1O (stereo partly drawn) [Example 63, 2-(((2R,3S,4R,5R)-5-(2-chloro-6-ethoxy-9H-purin-9-yl)-3,4-dihydroxytetrahydrofuran-2-yl)methoxy)-2-phosphonoacetic acid]	< 100 nM	100 to 1000 nM
CC(C)(C)OC(=O)[C@H](OC[C@H]1O[C@@H](n2cnc3c(N)nc(C#N)nc32)[C@H](O)[C@@H]1O)P(=O)(O)O (single isomer, unassigned) [Example 54]	< 100 nM	< 100 nM
CCOC(=O)C(OC[C@H]1O[C@@H](n2cnc3ccc(Cl)nc32)[C@H](O)[C@@H]1O)P(=O)(O)O (single isomer, unassigned) [Example 87]	< 100 nM	100 to 1000 nM
CCOC(=O)[C@H](OC[C@H]1O[C@@H](n2cnc3c(NC)nc(Cl)nc32)[C@H](O)[C@@H]1O)P(=O)(O)O (single isomer, unassigned) [Example 23]	< 100 nM	< 100 nM
Nc1nc(Cl)nc2c1ncn2[C@@H]1O[C@H](COC(Cc2c(F)cccc2F)(C(=O)O)C(=O)O)[C@@H](O)[C@H]1O [Example 84, 2-(((2R,3S,4R,5R)-5-(6-amino-2-chloro-9H-purin-9-yl)-3,4-dihydroxytetrahydrofuran-2-yl)methoxy)-2-(2,6-difluorobenzyl)malonic acid]	< 100 nM	< 100 nM
CCOC(=O)[C@@H](OC[C@H]1O[C@@H](n2cnc3c(NC4CCCC4)nc(Cl)nc32)[C@H](O)[C@@H]1O)P(=O)(O)O (single isomer, unassigned) [Example 25a]	< 100 nM	< 100 nM
CCNC(=O)[C@@H](OC[C@H]1O[C@@H](n2cnc3c(N)nc(Cl)nc32)[C@H](O)[C@@H]1O)P(=O)(O)O (single isomer, unassigned) [Example 18a]	100 to 1000 nM	< 100 nM
CC(C)(C)OC(=O)[C@@H](OC[C@H]1O[C@@H](n2cnc3c(N)nc(C#N)nc32)[C@H](O)[C@@H]1O)P(=O)(O)O (single isomer, unassigned) [Example 54b]	< 100 nM	100 to 1000 nM
CC(C)CNC(=O)[C@@H](OC[C@H]1O[C@@H](n2cnc3c(N)nc(Cl)nc32)[C@H](O)[C@@H]1O)P(=O)(O)O (single isomer, unassigned) [Example 17a]	100 to 1000 nM	< 100 nM
CCOC(=O)[C@H](OC[C@H]1O[C@@H](n2cnc3c(N)nc(SCC)nc32)[C@H](O)[C@@H]1O)P(=O)(O)O (single isomer, unassigned) [Example 44]	> 1000 nM	> 1000 nM
Nc1nc(Cl)nc2c1ncn2[C@@H]1O[C@H](COC(CC2CC2)(C(=O)O)C(=O)O)[C@@H](O)[C@H]1O [Example 98, 2-(((2R,3S,4R,5R)-5-(6-amino-2-chloro-9H-purin-9-yl)-3,4-dihydroxytetrahydrofuran-2-yl)methoxy)-2-(cyclopropylmethyl)malonic acid]	< 100 nM	< 100 nM
Cc1nc(N)c2ncn([C@@H]3O[C@H](COC(C(=O)O)P(=O)(O)O)[C@@H](O)[C@H]3O)c2n1 (single isomer, unassigned) [Example 69a]	100 to 1000 nM	> 1000 nM
CCOC(=O)[C@H](OC[C@H]1O[C@@H](n2ccc(=O)n(C)c2=O)[C@H](O)[C@@H]1O)P(=O)(O)O (single isomer, unassigned) [Example 30]	100 to 1000 nM	> 1000 nM
CCS(=O)(=O)C(OC[C@H]1O[C@@H](n2cnc3c(N)nc(Cl)nc32)[C@H](O)[C@@H]1O)P(=O)(O)O (single isomer, unassigned) [Example 11a]	100 to 1000 nM	> 1000 nM
CC(C)COC(=O)[C@H](OC[C@H]1O[C@@H](n2cnc3c(N)nc(Cl)nc32)[C@H](O)[C@@H]1O)P(=O)(O)O (single isomer, unassigned) [Example 14]	< 100 nM	< 100 nM
Cc1nnc(C(OC[C@H]2O[C@@H](n3cnc4c(N)nc(Cl)nc43)[C@H](O)[C@@H]2O)P(=O)(O)O)o1 (single isomer, unassigned) [Example 21]	< 100 nM	100 to 1000 nM
Nc1nc(F)nc2c1ncn2[C@@H]1O[C@H](CO[C@H](C(=O)O)P(=O)(O)O)[C@@H](O)[C@H]1O [Example 53a, (S)-2-(((2R,3S,4R,5R)-5-(6-amino-2-fluoro-9H-purin-9-yl)-3,4-dihydroxytetrahydrofuran-2-yl)methoxy)-2-phosphonoacetic acid]	> 1000 nM	> 1000 nM
CS(=O)(=O)C(OC[C@H]1O[C@@H](n2cnc3c(N)nc(Cl)nc32)[C@H](O)[C@@H]1O)P(=O)(O)O (single isomer, unassigned) [Example 10]	100 to 1000 nM	100 to 1000 nM
CC(C)COC(=O)[C@@H](OC[C@H]1O[C@@H](n2cnc3c(N)nc(Cl)nc32)[C@H](O)[C@@H]1O)P(=O)(O)O (single isomer, unassigned) [Example 14a]	100 to 1000 nM	100 to 1000 nM
COCC(OC[C@H]1O[C@@H](n2cnc3c(N)nc(Cl)nc32)[C@H](O)[C@@H]1O)(C(=O)O)C(=O)O [Example 5, 2-(((2R,3S,4R,5R)-5-(6-amino-2-chloro-9H-purin-9-yl)-3,4-dihydroxytetrahydrofuran-2-yl)methoxy)-2-(methoxymethyl)malonic acid]	< 100 nM	< 100 nM
